This note sets out measurements from US20200237909A1, “METHODS OF TREATING OR PREVENTING BREAST CANCER METASTASES USING ANTIBODIES TO JAGGED1 AND CHEMOTHERAPEUTIC AGENTS” (The Trustees of Princeton University, priority 2017, published 2020).

For one test, the system named is SCP28 cells. Description: Parental SCP28 bone metastasis, late treatment with 15D11 and paclitaxel. In kind it is in vivo, mice. The following applies: low endogenous Jagged1. The source says:
FIG. 4. Synergistic inhibition of bone metastasis by SCP28 with combined treatment of 15D11 and chemotherapy. (A) Schematic illustration of the experimental procedure. (B) Quantification of bone metastasis burden based on BLI imaging. n=10. *p<0.05 and **p<0.01 by Mann-Whitney test. (C) Representative BLI images and X-ray images at week 6. (D) Representative H&E and TRAP staining images from the experiment. (E) Quantification of osteolytic lesions based on X-ray images. n=10. **p<0.01 by Student's t-test. (F) Quantification of TRAP+ osteoclasts from decalcified histological bone sections of hind limbs from mice, n=10. **p<0.01 by Student's t-test. Size bar: 100 μm for H&E and 50 μm for TRAP.
The strong inhibitory effect of the combined treatment on bone metastasis could potentially be explained by the combined effect of blocking Jagged1-dependent stromal engagement by 15D11 and cytotoxicity of paclitaxel to tumor cells. […]
Mice were purchased from Jackson laboratory. […] Spontaneous bone metastasis was monitored by X-ray imaging. […] Bone metastasis burden was monitored by weekly BLI and X-ray imaging. At the experimental endpoint, mice were euthanized for bone histology analysis and half of the bone samples were used for μCT imaging and bone density quantification.

In a further test the test system is SCP28. Description: CC3 immunofluorescent staining of GFP-positive tumor cells in mouse bone sections. The format is in vivo, mice. The following applies: after two rounds of treatment. On the procedure: FIG. 7. Pro-survival effect of osteoblast Jagged1 on cancer cells can be blocked by 15D11. (A) 3-D tumorsphere culture of MCF7, SCP28, and SUM1315-M1B1 cells, alone or in co-cultured with osteoblast cells, were treated with indicated concentrations of cisplatin or docetaxel. Two days after the chemotherapy, the surviving tumor spheres were counted under the fluorescent microscope. n=3. *p<0.05 by Student's t-test. (B) Cell culture of SCP28 cells alone or in co-culture with MC3T3-E1 pre-osteoblast cells were treated with PBS control or cisplatin. Protein samples were collected at 6 hr, 24 hr, and 72 hr later. Cleaved PARP and cleaved caspase-3 were determined by immunoblotting. # marks full length PARP and * marks cleaved PARP. […] Hind limb bones were fixed and cryo-sectioned for IF staining against CC3 for apoptotic cells and GFP for tumor cells (E), and CC3 positive apoptotic cells among GFP-positive tumor cells were quantified in F. Size bar: 25 μm. n=5. **p<0.01 by Student's t-test. […] Tumor cells in the bone were quantified based on BLI imaging at Day 1 and Day 4. […]
Hindlimb bones were excised from mice at the end point of each experiment, immediately after the last BLI time point. […] For quantitative analysis of lesion area, a 10× objective was used to focus on the tumor region of interest and images were acquired using the AxioCamICc3 camera set to an exposure of around 100 ms. […]

As for `CC(=O)O[C@H]1C(=O)[C@@]2(C)[C@H]([C@H](OC(=O)c3ccccc3)[C@]3(O)C[C@H](OC(=O)[C@H](O)[C@@H](NC(=O)c4ccccc4)c4ccccc4)C(C)=C1C3(C)C)[C@]1(OC(C)=O)CO[C@@H]1C[C@@H]2O` [paclitaxel], the bone metastasis burden result in the test with SCP28 cells is “only slightly reduced metastatic burden”. In addition, in the test with SCP28, the “CC3 positive tumor cells” value is given as “substantial numbers of tumor cells”.
